The results in this text go back to patent US12304890B2, “R-type pyridyloxycarboxylic acid, salt and ester derivative thereof, and preparation method therefor, and herbicidal composition and application thereof” (Qingdao Kingagroot Chemical Compound Co., Ltd., priority 2018, dated 2025).

Type in all cases: in vivo
In one experiment the test system is Digitaria sanguinalis. Put plainly: Post-emergence test experiment, Digitaria sanguinalis. As to conditions: 1000 g a.i./ha, 3 weeks in greenhouse, fresh weight inhibition. The procedure, abridged:
(§1)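 Pot-grown plants, sown 2 weeks earlier and at 2-3 leaves, received a foliar spray of compound in acetone/tween-80 with methyl oleate adjuvant. Effect was expressed as fresh weight inhibition rate after three further greenhouse weeks.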

For another experiment, the system named is Echinochloa crusgalli. Put plainly: Post-emergence test experiment, Echinochloa crusgalli. As to conditions: 1000 g a.i./ha, 3 weeks in greenhouse, fresh weight inhibition. The procedure, abridged: as §1
Experiment [1] relates to Monocotyledonous and dicotyledonous weed seeds and main crop seeds. Description: Post-emergence test experiment, other weeds and crops (Table 4, 1000 g a.i./ha). The note with it: 3 weeks in greenhouse, fresh weight inhibition. Put shortly: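 Weed and crop seeds (wheat, corn, rice, soybean, cotton, oilseed, millet, sorghum) sown in soil pots in a greenhouse and sprayed at 2-3 leaf stage, 2 weeks after sowing. Compound in acetone/tween-80 with methyl oleate concentrate (1.5 L/ha) as synergist. Effect recorded as fresh-weight growth inhibition rate.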

`CC(Oc1nc(F)c(Cl)c(N)c1Cl)C(=O)SCc1ccccc1` (stereo not drawn) [Compound 2-301]: the “Activity level (growth inhibition rate), Digitaria sanguinalis” value in the experiment on Digitaria sanguinalis is listed as 5 (Level 5: the growth inhibition rate is greater than 85%). In addition, the “Activity level (growth inhibition rate), Echinochloa crusgalli” value in the experiment with Echinochloa crusgalli is 5 (Level 5: the growth inhibition rate is greater than 85%). For the same compound, in experiment [1], the “Activity level (growth inhibition rate), Abutilon theophrasti Medic.” value is on record as 5 (Level 5: the growth inhibition rate is greater than 85%); the “Activity level (growth inhibition rate), Galium aparine” value is recorded as 5 (Level 5: the growth inhibition rate is greater than 85%); the “Activity level (growth inhibition rate), Monochoria Vaginalis” value was 5 (Level 5: the growth inhibition rate is greater than 85%).
On to `C[C@@H](Oc1nc(F)c(Cl)c(N)c1Cl)C(=O)OCCCl` [Compound 2-277], for which the “Activity level (growth inhibition rate), Digitaria sanguinalis” value in the experiment with Digitaria sanguinalis is 5 (Level 5: the growth inhibition rate is greater than 85%). Besides, the “Activity level (growth inhibition rate), Echinochloa crusgalli” value in the experiment with Echinochloa crusgalli is given as 5 (Level 5: the growth inhibition rate is greater than 85%). In experiment [1], the “Activity level (growth inhibition rate), Abutilon theophrasti Medic.” value is 5 (Level 5: the growth inhibition rate is greater than 85%); the “Activity level (growth inhibition rate), Galium aparine” value is reported as 5 (Level 5: the growth inhibition rate is greater than 85%); the “Activity level (growth inhibition rate), Monochoria Vaginalis” value is recorded as 5 (Level 5: the growth inhibition rate is greater than 85%).
Consider `CC(Oc1nc(F)c(Cl)c(N)c1Cl)C(=O)OCc1ccccc1C(F)(F)F` (stereo not drawn) [Compound 2-327], for which the “Activity level (growth inhibition rate), Digitaria sanguinalis” value in the experiment on Digitaria sanguinalis is 5 (Level 5: the growth inhibition rate is greater than 85%). In the experiment with Echinochloa crusgalli, the “Activity level (growth inhibition rate), Echinochloa crusgalli” value was 5 (Level 5: the growth inhibition rate is greater than 85%). For the same compound, in experiment [1], the “Activity level (growth inhibition rate), Abutilon theophrasti Medic.” value is given as 5 (Level 5: the growth inhibition rate is greater than 85%); the “Activity level (growth inhibition rate), Galium aparine” value is 5 (Level 5: the growth inhibition rate is greater than 85%); the “Activity level (growth inhibition rate), Monochoria Vaginalis” value is listed as 5 (Level 5: the growth inhibition rate is greater than 85%).
In the case of `COC(=O)C(C)OC(=O)C(C)Oc1nc(F)c(Cl)c(N)c1Cl` (stereo not drawn) [Compound 2-295], the “Activity level (growth inhibition rate), Digitaria sanguinalis” value in the experiment with Digitaria sanguinalis is 5 (Level 5: the growth inhibition rate is greater than 85%). Also, the “Activity level (growth inhibition rate), Echinochloa crusgalli” value with Echinochloa crusgalli was 5 (Level 5: the growth inhibition rate is greater than 85%). Moreover, in experiment [1], the “Activity level (growth inhibition rate), Abutilon theophrasti Medic.” value is 5 (Level 5: the growth inhibition rate is greater than 85%); the “Activity level (growth inhibition rate), Galium aparine” value was 5 (Level 5: the growth inhibition rate is greater than 85%); the “Activity level (growth inhibition rate), Monochoria Vaginalis” value is 5 (Level 5: the growth inhibition rate is greater than 85%).
As to `COC(=O)[C@@H](C)Oc1nc(F)c(Cl)c(NC(C)=O)c1Cl` [Compound 2-377], the “Activity level (growth inhibition rate), Digitaria sanguinalis” value with Digitaria sanguinalis was 5 (Level 5: the growth inhibition rate is greater than 85%). In the experiment on Echinochloa crusgalli, the “Activity level (growth inhibition rate), Echinochloa crusgalli” value is 5 (Level 5: the growth inhibition rate is greater than 85%). In experiment [1], the “Activity level (growth inhibition rate), Abutilon theophrasti Medic.” value is 5 (Level 5: the growth inhibition rate is greater than 85%); the “Activity level (growth inhibition rate), Galium aparine” value is on record as 5 (Level 5: the growth inhibition rate is greater than 85%); the “Activity level (growth inhibition rate), Monochoria Vaginalis” value was 5 (Level 5: the growth inhibition rate is greater than 85%).
With `COC(=O)[C@@H](C)Oc1nc(Cl)c(Cl)c(N)c1Cl` [Compound 2-31], the “Activity level (growth inhibition rate), Digitaria sanguinalis” value in the experiment with Digitaria sanguinalis is listed as 5 (Level 5: the growth inhibition rate is greater than 85%). The “Activity level (growth inhibition rate), Echinochloa crusgalli” value in the experiment with Echinochloa crusgalli is reported as 5 (Level 5: the growth inhibition rate is greater than 85%). Moreover, in experiment [1], the “Activity level (growth inhibition rate), Abutilon theophrasti Medic.” value was 5 (Level 5: the growth inhibition rate is greater than 85%); the “Activity level (growth inhibition rate), Galium aparine” value is listed as 5 (Level 5: the growth inhibition rate is greater than 85%); the “Activity level (growth inhibition rate), Monochoria Vaginalis” value was 5 (Level 5: the growth inhibition rate is greater than 85%).
With `C1COCCN1.CC(Oc1nc(F)c(Cl)c(N)c1Cl)C(=O)O` (stereo not drawn) [Compound 2-24], the “Activity level (growth inhibition rate), Digitaria sanguinalis” value with Digitaria sanguinalis is 5 (Level 5: the growth inhibition rate is greater than 85%). Moreover, the “Activity level (growth inhibition rate), Echinochloa crusgalli” value in the experiment on Echinochloa crusgalli is given as 5 (Level 5: the growth inhibition rate is greater than 85%). In experiment [1], the “Activity level (growth inhibition rate), Abutilon theophrasti Medic.” value was 5 (Level 5: the growth inhibition rate is greater than 85%); the “Activity level (growth inhibition rate), Galium aparine” value was 5 (Level 5: the growth inhibition rate is greater than 85%); the “Activity level (growth inhibition rate), Monochoria Vaginalis” value is reported as 5 (Level 5: the growth inhibition rate is greater than 85%).
Take `C[C@@H](Oc1nc(F)c(Cl)c(N)c1Cl)C(=O)SCc1ccc(C#N)cc1` [Compound 2-338]: in the experiment on Digitaria sanguinalis, the “Activity level (growth inhibition rate), Digitaria sanguinalis” value is 5 (Level 5: the growth inhibition rate is greater than 85%). For the same compound, in the experiment with Echinochloa crusgalli, the “Activity level (growth inhibition rate), Echinochloa crusgalli” value was 5 (Level 5: the growth inhibition rate is greater than 85%). Also, in experiment [1], the “Activity level (growth inhibition rate), Abutilon theophrasti Medic.” value is 5 (Level 5: the growth inhibition rate is greater than 85%); the “Activity level (growth inhibition rate), Galium aparine” value is listed as 5 (Level 5: the growth inhibition rate is greater than 85%); the “Activity level (growth inhibition rate), Monochoria Vaginalis” value is 5 (Level 5: the growth inhibition rate is greater than 85%).
Take `C[C@@H](Oc1nc(F)c(Cl)c(N)c1Cl)C(=O)OCC(F)F` [Compound 2-279]: the “Activity level (growth inhibition rate), Digitaria sanguinalis” value in the experiment on Digitaria sanguinalis is listed as 5 (Level 5: the growth inhibition rate is greater than 85%). Further, the “Activity level (growth inhibition rate), Echinochloa crusgalli” value in the experiment on Echinochloa crusgalli is recorded as 5 (Level 5: the growth inhibition rate is greater than 85%). Also, in experiment [1], the “Activity level (growth inhibition rate), Abutilon theophrasti Medic.” value is on record as 5 (Level 5: the growth inhibition rate is greater than 85%); the “Activity level (growth inhibition rate), Galium aparine” value is given as 5 (Level 5: the growth inhibition rate is greater than 85%); the “Activity level (growth inhibition rate), Monochoria Vaginalis” value is on record as 5 (Level 5: the growth inhibition rate is greater than 85%).
Take `CC(Oc1nc(F)c(Cl)c(N)c1Cl)C(=O)OCc1cccc(Cl)c1` (stereo not drawn) [Compound 2-316]: in the experiment on Digitaria sanguinalis, the “Activity level (growth inhibition rate), Digitaria sanguinalis” value is 5 (Level 5: the growth inhibition rate is greater than 85%). The “Activity level (growth inhibition rate), Echinochloa crusgalli” value with Echinochloa crusgalli is on record as 5 (Level 5: the growth inhibition rate is greater than 85%). For the same compound, in experiment [1], the “Activity level (growth inhibition rate), Abutilon theophrasti Medic.” value is recorded as 5 (Level 5: the growth inhibition rate is greater than 85%); the “Activity level (growth inhibition rate), Galium aparine” value is listed as 5 (Level 5: the growth inhibition rate is greater than 85%); the “Activity level (growth inhibition rate), Monochoria Vaginalis” value is listed as 5 (Level 5: the growth inhibition rate is greater than 85%).
As to `CC(Oc1nc(F)c(Cl)c(N)c1Cl)C(=O)O.CNC` (stereo not drawn) [Compound 2-7], the “Activity level (growth inhibition rate), Digitaria sanguinalis” value with Digitaria sanguinalis is given as 5 (Level 5: the growth inhibition rate is greater than 85%). The “Activity level (growth inhibition rate), Echinochloa crusgalli” value in the experiment with Echinochloa crusgalli is 5 (Level 5: the growth inhibition rate is greater than 85%). Besides, in experiment [1], the “Activity level (growth inhibition rate), Abutilon theophrasti Medic.” value was 5 (Level 5: the growth inhibition rate is greater than 85%); the “Activity level (growth inhibition rate), Galium aparine” value was 5 (Level 5: the growth inhibition rate is greater than 85%); the “Activity level (growth inhibition rate), Monochoria Vaginalis” value is on record as 5 (Level 5: the growth inhibition rate is greater than 85%).
For the compound `CCCCCCCCCCCCSC(=O)[C@@H](C)Oc1nc(F)c(Cl)c(N)c1Cl` [Compound 2-236], in the experiment with Digitaria sanguinalis, the “Activity level (growth inhibition rate), Digitaria sanguinalis” value was 5 (Level 5: the growth inhibition rate is greater than 85%). For the same compound, the “Activity level (growth inhibition rate), Echinochloa crusgalli” value in the experiment on Echinochloa crusgalli is listed as 5 (Level 5: the growth inhibition rate is greater than 85%). Further, in experiment [1], the “Activity level (growth inhibition rate), Abutilon theophrasti Medic.” value was 5 (Level 5: the growth inhibition rate is greater than 85%); the “Activity level (growth inhibition rate), Galium aparine” value is given as 5 (Level 5: the growth inhibition rate is greater than 85%); the “Activity level (growth inhibition rate), Monochoria Vaginalis” value is 5 (Level 5: the growth inhibition rate is greater than 85%).
Turning to `C[C@@H](Oc1nc(F)c(Cl)c(N)c1Cl)C(=O)OCc1cccc2ccccc12` [Compound 2-341], in the experiment on Digitaria sanguinalis, the “Activity level (growth inhibition rate), Digitaria sanguinalis” value is given as 5 (Level 5: the growth inhibition rate is greater than 85%). For the same compound, in the experiment on Echinochloa crusgalli, the “Activity level (growth inhibition rate), Echinochloa crusgalli” value is given as 5 (Level 5: the growth inhibition rate is greater than 85%). For the same compound, in experiment [1], the “Activity level (growth inhibition rate), Abutilon theophrasti Medic.” value is reported as 5 (Level 5: the growth inhibition rate is greater than 85%); the “Activity level (growth inhibition rate), Galium aparine” value is recorded as 5 (Level 5: the growth inhibition rate is greater than 85%); the “Activity level (growth inhibition rate), Monochoria Vaginalis” value is given as 5 (Level 5: the growth inhibition rate is greater than 85%).
With `C=CCOC(=O)C(C)(C)OC(=O)C(C)Oc1nc(F)c(Cl)c(N)c1Cl` (stereo not drawn) [Compound 2-288], in the experiment with Digitaria sanguinalis, the “Activity level (growth inhibition rate), Digitaria sanguinalis” value is reported as 5 (Level 5: the growth inhibition rate is greater than 85%). For the same compound, in the experiment with Echinochloa crusgalli, the “Activity level (growth inhibition rate), Echinochloa crusgalli” value is listed as 5 (Level 5: the growth inhibition rate is greater than 85%). In experiment [1], the “Activity level (growth inhibition rate), Abutilon theophrasti Medic.” value was 5 (Level 5: the growth inhibition rate is greater than 85%); the “Activity level (growth inhibition rate), Galium aparine” value is reported as 5 (Level 5: the growth inhibition rate is greater than 85%); the “Activity level (growth inhibition rate), Monochoria Vaginalis” value is 5 (Level 5: the growth inhibition rate is greater than 85%).
`CCOCOC(=O)[C@@H](C)Oc1nc(F)c(Cl)c(N)c1Cl` [Compound 2-370]: the “Activity level (growth inhibition rate), Digitaria sanguinalis” value in the experiment on Digitaria sanguinalis is on record as 5 (Level 5: the growth inhibition rate is greater than 85%). For the same compound, the “Activity level (growth inhibition rate), Echinochloa crusgalli” value in the experiment on Echinochloa crusgalli is recorded as 5 (Level 5: the growth inhibition rate is greater than 85%). Besides, in experiment [1], the “Activity level (growth inhibition rate), Abutilon theophrasti Medic.” value is listed as 5 (Level 5: the growth inhibition rate is greater than 85%); the “Activity level (growth inhibition rate), Galium aparine” value is listed as 5 (Level 5: the growth inhibition rate is greater than 85%); the “Activity level (growth inhibition rate), Monochoria Vaginalis” value is 5 (Level 5: the growth inhibition rate is greater than 85%).
